Source: patent US20250251402A1, “METHODS OF DETECTING MOLECULAR AGGREGATES USING IMAGE CORRELATION SPECTROSCOPY (ICS)” (The General Hospital Corporation, priority 2022, published 2025)
Entries after “also recorded” stand apart in the source; their conditions may differ.

Tests used:
SKOV3 cells = experiment: γH2AX immunofluorescence in SKOV3 cells (intensity, Imaris Spots, ICS TNoP and DA); format: cell-based
From the text: (§1) For the ICS analysis, nuclei were segmented from the DAPI channel using a watershed approach in MATLAB. Briefly, we applied a difference of gaussians for size-based feature extraction of nuclei in the image (upper gaussian σ=100, lower gaussian σ=2-5 dependent on cell size). This feature enhanced image was then binarized to create a primary mask (using the function imbinarize) and connected components under 100 pixels were removed (using the function bwareaopen). We then created a distance transform of the resulting binary image (using the function bwdist). Seed points were determined by finding the regional maximum of a gaussian filtered image, with a gaussian σ of appropriate size for seed point detection (σ×7 or 8 dependent on cell size). The seed points were applied to the distance transform, and we applied the watershed function to the resulting image to obtain masks for each nucleus (extracted using the function regionprops).
(§2) Using the nucleus masks, we performed ICS analysis on the antibody-stained channel, within size limitations for a nucleus (objects >400 and <2400 pixels). Intensity, DA and TNOP were calculated for each cell. In this analysis, since the ROI is defined by the nucleus mask (segmented from nuclear signal using DAPI staining), TNoP represents the total number of particles per nucleus, with the image area being the number of pixels in each nuclear mask.
(§3) Measurements across experiments were normalized by the control in each dataset. […] Data were plotted in Prism and statistical analysis was performed in Excel.
(§4) Imaris spots analysis were performed with Imaris 9.8 with background subtraction, using a spot size of 1 μm that was measured from the smallest distinguishable foci from the control image. For images with multiple nuclei, ImarisCell was used with the detection type “cell and vesicles”, where the nucleus in the DAPI channel was modelled as the “cell” and antibody-labeled foci were modelled as the “vesicles”. This enabled us to count the number of foci per nucleus for multiple cells. In each dataset, the automatic “quality” threshold was determined from the control image and the same threshold was used for every image in the dataset to be able to compare the outputs across datasets. Similar to the ICS analysis, only cells with an area between 400-2400 voxels were included for analysis.
(§5) All chemicals were purchased from Sigma unless otherwise noted. All drugs were purchased from Selleck Chemicals. Cells were cultured in media supplemented with 10% fetal bovine serum and 1% penicillin/streptomycin. OVCA429 were originally obtained from Dr. Michael Birrer and cultured in DMEM. SKOV3 was obtained from ATCC and cultured in RPMI. For MMS treatment, cells were incubated for 6 hours before fixation with 4% formaldehyde, whereas for treatment with PARP inhibitors, cells were incubated for 24 hours before fixation.
(§6) Cells were plated in 8-well slides (Fisher) to achieve 50% confluence overnight. Cells were then treated and fixed with 4% formaldehyde in PBS at room temperature for 10 minutes. Antibody staining was performed according to the manufacturers protocol (Cell Signaling Technologies or Abcam). Primary antibodies used were γH2AX (CST, #2577), RPA1 (CST, #2267) and RAD51 (Abcam, 63801), with Anti-rabbit IgG Fab2 Alexa Fluor 647 (CST, #4414) as the secondary fluorescent antibody. After antibody labeling, prolong gold with DAPI (CST) was added and samples were stored for up to 1 week prior to imaging. Confocal imaging was performed on an Olympus FV1000 multiphoton/confocal microscope using an Olympus XLUMPlanFL N 20× objective, NA 1.00 with chromatic correction, and 3× digital zoom. DAPI was excited with a 405 nm laser, while Alexa Fluor 647 was excited with a 635 nm laser. A multiband (DM 405/488/561/633 nm) dichroic mirror was used to direct the excitation laser and collect emission. […]

OVCA429 cells = experiment: γH2AX immunofluorescence in OVCA429 cells (intensity, Imaris Spots, ICS TNoP and DA); format: cell-based
From the text: as §1, §2, §3, §4, §5, §6

PARP1 [1] = molecular target: T1, PARP1 (Homo sapiens, UniProt P09874); experiment: PARP1 trapping by chromatin fractionation in HT1080 cells; format: cell-based; details: HT1080, 100 μM veliparib vs 1 μM talazoparib
T1 sequence (P09874 whole entry, species assumed): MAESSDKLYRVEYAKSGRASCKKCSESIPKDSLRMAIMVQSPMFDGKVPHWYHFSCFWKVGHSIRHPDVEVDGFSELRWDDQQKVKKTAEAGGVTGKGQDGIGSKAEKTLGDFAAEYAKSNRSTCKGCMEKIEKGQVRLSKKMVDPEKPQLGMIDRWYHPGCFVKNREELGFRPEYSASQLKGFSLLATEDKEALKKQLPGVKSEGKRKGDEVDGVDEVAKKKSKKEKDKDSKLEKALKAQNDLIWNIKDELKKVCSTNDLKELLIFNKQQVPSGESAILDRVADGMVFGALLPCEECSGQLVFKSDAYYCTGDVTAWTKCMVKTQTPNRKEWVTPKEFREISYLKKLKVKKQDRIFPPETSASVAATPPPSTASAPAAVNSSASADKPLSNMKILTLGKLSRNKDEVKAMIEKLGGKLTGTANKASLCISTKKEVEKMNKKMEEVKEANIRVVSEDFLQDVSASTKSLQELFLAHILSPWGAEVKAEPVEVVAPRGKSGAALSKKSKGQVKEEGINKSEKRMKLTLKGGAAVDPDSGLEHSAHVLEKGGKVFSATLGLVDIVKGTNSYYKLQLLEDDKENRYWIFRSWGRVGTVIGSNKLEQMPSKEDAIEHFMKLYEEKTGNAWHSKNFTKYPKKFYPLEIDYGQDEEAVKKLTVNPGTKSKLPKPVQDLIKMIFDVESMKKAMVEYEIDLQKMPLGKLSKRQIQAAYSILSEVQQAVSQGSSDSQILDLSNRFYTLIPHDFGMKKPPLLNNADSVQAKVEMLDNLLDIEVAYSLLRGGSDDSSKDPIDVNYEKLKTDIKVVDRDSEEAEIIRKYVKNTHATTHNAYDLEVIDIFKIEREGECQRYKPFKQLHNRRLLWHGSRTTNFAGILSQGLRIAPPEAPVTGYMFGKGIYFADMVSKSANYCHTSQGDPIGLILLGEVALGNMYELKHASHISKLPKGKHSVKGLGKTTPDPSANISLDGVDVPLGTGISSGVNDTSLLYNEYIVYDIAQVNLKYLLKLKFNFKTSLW
Protocol: Lysate was then pelleted by centrifugation at 14,000 g for 15 min at 4° C. Supernatant was transferred to a clean tube and total protein was determined using a BCA assay (Pierce). Protein was loaded into a NuPAGE gel (Thermo Fisher) and transferred to nitrocellulose paper (Thermo Fisher). Blocking and antibody labeling was then carried out according to the antibody manufacturer's protocol. For PAR measurements, cells were treated with TMZ for 1 hour, or 1 μM H2O2 for 10 minutes in 6-well plates. Cells were trypsinized and washed once with PBS prior to cell lysis. Western blot expression levels were quantified by inverting the red channel of an image of the blot in FIJI, subtracting the background intensity and measuring the total intensity of the lane. These values where then normalized to the control signal. […] The media was removed, and cells were scraped off the culture dish in 1 ml PBS. The cells were pelleted by centrifugation at 500 g for 4 minutes at 4° C. and the solution was removed. Pellets were resuspended in 250 μl lysis buffer (10 mM HEPES, 10 mM KCl, 1.5 mM MgCl2, 340 mM sucrose, 10% glycerol, 0.1% Triton X-100, pH 7.9, protease inhibitors (Thermo Fisher)) and incubated on ice for 10 minutes. Nuclei were separated by centrifugation at 1300 g for 5 minutes at 4° C. and the solution was collected (cytoplasm fraction). […]

HCC1937 cells = experiment: 53BP1-mApple condensate anisotropy (homo-FRET) and intensity in HCC1937 cells; format: cell-based; details: HCC1937, 1 μM PARPi and 100 μM TMZ for 1 hour
Protocol: (§7) All fluorescence imaging was performed on an Olympus FV1000 multiphoton/confocal microscope. Anisotropy measurements were performed through custom modifications to the imaging system as previously described (30). Briefly, linear polarization of two photon excitation light at 910 nm (MaiTai femtosecond laser, Spectra Physics) was controlled by a glan-thompson prism and half wave plate. […] was collected in orthogonal orientations through two detectors, parallel and perpendicular to excitation polarization, through a polarizing beam splitter that replaced a dichroic mirror in the emission filter cube. The alignment and detector gain and noise were validated each imaging session through measurements of a standard slide. Images were taken with an Olympus 25× XLPlan N objective, NA 1.05, and 3× digital zoom. Confocal imaging was performed with an Olympus XLUMPlanFL N 20× objective, NA 1.00 with chromatic correction, and 3× digital zoom.
Cells were grown on 12 mm round, uncoated, sterilized glass coverslips in 24-well plates for 24 hours. Cells were treated with PARPi and 100 μM TMZ for 1 hour or 10 nM GMX1778 overnight followed by 100 μM TMZ for 1 hour. TMZ was added to stimulate new DNA damage induced condensates in the presence of PARPi or NAD″ depletion. Cells were then transferred to the microscope for anisotropy imaging. Images were analyzed in MATLAB. Nuclei were segmented through intensity thresholding and condensates were segmented through further intensity thresholding with a higher threshold. Values of segmented nuclei and condensates were determined through the regionprops function. Segmentation was corrected through area restrictions to ensure that regions of interest were isolated condensates. The thresholding parameters were consistent throughout experiments. The average intensity and anisotropy of each segmented nuclei or condensate was then calculated. Data were plotted in Prism and analysis performed in Prism or Excel.

HT1080 cells [2] = experiment: 53BP1-mApple condensate anisotropy and intensity in HT1080 cells; format: cell-based; details: HT1080, increased veliparib concentrations
Protocol: as §7
Cells were grown on 12 mm round, uncoated, sterilized glass coverslips in 24-well plates for 24 hours. Cells were treated with PARPi and 100 μM TMZ for 1 hour or 10 nM GMX1778 overnight followed by 100 μM TMZ for 1 hour. […] Images were analyzed in MATLAB. […] Values of segmented nuclei and condensates were determined through the regionprops function. […] The average intensity and anisotropy of each segmented nuclei or condensate was then calculated. […]

PARP1 [3] = molecular target: T1, PARP1; details: actual rate multiplied by 10^−7 for the stochastic model
From the text: ka (trap): The association constant of PARPi for PARP1. […] Values were taken as an average of previous measurements. […] Values were taken as an average of previous measurements. […] Values were taken as an average of previous measurements.
Association of PARPi to PARP1 (p.ka_trap): The association constant of each PARPi on PARP1. […] Rates were corrected to account for the interpretation of PARP1 concentration relative to DNA through multiplying the actual rate by 10^−7. This rate correction was performed for all association constants.

PARP = PARP (Homo sapiens, UniProt P09874); details: HT1080, 1 μM PARPi, 500 nM fluorescent olaparib
Sequence of PARP (P09874 2-1014): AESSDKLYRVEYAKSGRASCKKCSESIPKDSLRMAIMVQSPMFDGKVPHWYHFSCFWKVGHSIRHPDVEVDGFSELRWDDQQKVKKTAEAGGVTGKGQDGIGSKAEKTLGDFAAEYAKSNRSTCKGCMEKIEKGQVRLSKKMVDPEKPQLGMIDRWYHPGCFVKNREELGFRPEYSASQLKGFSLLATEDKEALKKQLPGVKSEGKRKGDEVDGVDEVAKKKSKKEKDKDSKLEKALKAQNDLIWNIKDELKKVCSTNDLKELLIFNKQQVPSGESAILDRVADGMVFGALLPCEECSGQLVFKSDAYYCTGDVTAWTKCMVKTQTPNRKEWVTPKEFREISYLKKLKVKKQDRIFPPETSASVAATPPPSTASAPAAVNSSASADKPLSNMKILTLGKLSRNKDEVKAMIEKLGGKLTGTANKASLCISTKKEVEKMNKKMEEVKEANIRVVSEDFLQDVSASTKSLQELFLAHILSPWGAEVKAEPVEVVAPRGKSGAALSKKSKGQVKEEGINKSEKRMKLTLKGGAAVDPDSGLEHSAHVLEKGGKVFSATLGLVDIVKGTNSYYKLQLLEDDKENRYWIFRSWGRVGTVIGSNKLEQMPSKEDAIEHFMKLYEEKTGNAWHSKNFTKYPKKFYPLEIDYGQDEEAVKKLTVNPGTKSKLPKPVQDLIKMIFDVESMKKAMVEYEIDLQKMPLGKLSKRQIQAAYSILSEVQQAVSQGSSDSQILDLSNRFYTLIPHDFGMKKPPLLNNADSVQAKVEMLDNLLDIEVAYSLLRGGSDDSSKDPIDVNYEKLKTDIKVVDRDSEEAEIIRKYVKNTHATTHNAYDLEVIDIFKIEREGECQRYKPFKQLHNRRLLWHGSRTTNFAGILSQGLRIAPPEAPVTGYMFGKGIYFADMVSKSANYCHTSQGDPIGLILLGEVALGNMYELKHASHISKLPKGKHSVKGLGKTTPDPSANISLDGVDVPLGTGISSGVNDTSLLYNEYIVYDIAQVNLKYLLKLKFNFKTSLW
Protocol: Cells were grown on 25 mm round, uncoated, sterilized glass coverslips in 6-well plates for 24 hours. […] Coverslips were removed from the 6-well plates, mounted onto a perfusion chamber (Warner Instruments), sealed with vacuum grease and perfused with a custom tubing setup. The chamber was then mounted onto the microscope and temperature was maintained at 37° C. using a heating pad and feedback loop. Cells were initially located using fluorescent drug or autofluorescence and allowed to temperature equilibrate on the microscope stage for at least 5 minutes. Images were acquired using the anisotropy configuration as described above. After initial images were acquired, the chamber was perfused with 10× volume of the wash media containing fluorescent drug while chamber media and excess wash media were aspirated out of the chamber with vacuum. Images were then acquired at the desired time points while correcting for any drift. Association of fluorescent drug measurements were performed through rapid addition of media containing fluorescent drug (500 nM) and immediate image acquisition.
Nuclei were segmented in MATLAB and the average nuclear intensity and anisotropy were calculated using the regionprops function. […] Values were then plotted as a function of time, with t=0 when PARPi was removed, in Prism (Graphpad) and a one phase association curve was fit to obtain the binding rate. […]

PARP1 [4] = molecular target: T1, PARP1; details: average of previous measurements; cited from earlier work
PARP1-DNA = PARP1-DNA (Homo sapiens, UniProt P09874); details: from previous findings; cited from earlier work
Sequence of PARP1-DNA (P09874 whole entry): as the sequence (P09874 whole entry, species assumed) above

HT1080 cells [5] = experiment: γH2AX immunofluorescence ICS DA and nuclear intensity in HT1080 cells; format: cell-based; details: HT1080, 100 nM PDD00017273 overnight
Protocol: Cells were plated in 8-well […] slides (Thermo or Ibidi) to achieve 50% confluence overnight. Cells were then treated and fixed with 4% paraformaldehyde in PBS at room temperature for 10 minutes. Antibody staining was performed according to the manufacturers protocol. Following fluorescent secondary antibody labeling, prolong gold with DAPI (Cell Signaling Technologies) was added and samples were stored for up to 1 week prior to imaging.
ICS analysis was performed in MATLAB as previously described (41). Briefly, nuclei were segmented from the DAPI channel with the MATLAB function, imbinarize, converting the greyscale image to a binary dependent on an automatically defined threshold. The MATLAB function, regionprops, was used to identify single nuclei as objects. Each nucleus was used as a mask to perform ICS analysis on the antibody-stained channel, within size limitations for a nucleus (objects >400 and <3000 pixels). To ensure the analysis of antibody stained nuclei, nuclei under an average intensity of 200 au after background subtraction were excluded. The spatial autocorrelation functions were calculated using Fourier methods, then fit to a 2D Gaussian using a nonlinear least-squares algorithm (41). Using the outputs of the fitting, the mean number of independent emitting fluorescent entities per focal spot area and subsequently the DA were determined (59). DA measurements across experiments were normalized by the control in each dataset. […] Any DA values exceeding 3 standard deviations from the mean were defined as incorrectly segmented and removed. Data were plotted in Prism and analysis performed in Prism or Excel.

HT1080 cells [6] = experiment: Dose response cell viability (Presto Blue) in HT1080 cells; format: cell-based; details: HT1080, 100 nM PDD00017273
Protocol: Cells were plated in a 96-well plate at 2×10^3 cells per well and treated with drug for 5 days in three replicate wells. Cell viability was then determined using Presto Blue (Thermo Fisher). Signal was averaged over 3 replicate wells and normalized to blank (no cells) as well as to the levels of untreated wells. A sigmoidal response curve was fit to the average of two experiments in Prism. PARPi z score was calculated for each PARPi using 9 cell lines. The average z score over three PARPi (veliparib, olaparib, talazoparib) was then determined as a representation of cell line PARPi sensitivity.

C[C@]1(c2nc3c(C(N)=O)cccc3[nH]2)CCCN1 [veliparib]
ICS TNoP of γH2AX, dose dependence (SKOV3 cells; SKOV3): failed to induce any correlative TNOP dose dependence
Normalized γH2AX intensity (SKOV3 cells; SKOV3, 1 μM veliparib, 24 hours): slight decrease
ICS DA of γH2AX at 100 μM, compared to respective controls (SKOV3 cells; SKOV3, 100 μM): higher value than 100 μM olaparib
Number of γH2AX foci (Imaris Spots) at the highest dose of PARP inhibitor (SKOV3 cells; SKOV3, highest dose): higher
ICS DA of γH2AX, dose dependence (OVCA429 cells; OVCA429): full dose dependent increases in γH2AX clustering
Imaris Spots analysis of γH2AX, dose dependence (OVCA429 cells; OVCA429): failed to capture the full dose dependent DNA damage
γH2AX intensity, dose dependence (OVCA429 cells; OVCA429, PARP inhibitors): did not show a dose dependence
PARP1 trapping (PARP1 [1]): unable to reproduce the trapping observed with just 1 μM talazoparib
53BP1-mApple condensate anisotropy vs control (HCC1937 cells): not
Condensate 53BP1-mApple intensity (HT1080 cells [2]): lowered condensate 53BP1-mApple intensity
p.ka_trap: association of PARPi to PARP1, corrected rate (PARP1 [3]): 0.18 M⁻¹ s⁻¹
Apparent dissociation constant (koff) of PARPi in live cells (PARP): values similar to those previously determined in purified protein
ka (trap): association constant of PARPi for PARP1 (PARP1 [4]): 1.8e+06 M⁻¹ s⁻¹
kd (trap): dissociation of PARPi from PARP1(-DNA) (PARP1 [4]): 0.005 s⁻¹
kd (rel PARPi): dissociation constant of PARPi-PARP1 from DNA (PARP1-DNA): 0.00408 s⁻¹

PDD00017273
γH2AX DA induced by 1 μM veliparib or talazoparib, with vs without PDD00017273 (HT1080 cells [5]): did not alter the veliparib or talazoparib induced γH2AX DA; also recorded: no significant differences
HT1080 dose response to veliparib, with vs without PDD00017273 (HT1080 cells [6]): did not impact HT1080 response to veliparib
